Source: patent US10196357B2, “Biaryl compositions and methods for modulating a kinase cascade” (Athenex, Inc., priority 2007, dated 2019)
pIC50: −log10 of the molar value.

Legend:
isolated FAK = isolated FAK (Homo sapiens, UniProt Q05397); experiment: titration against isolated FAK; assay type: biochemical; conditions: titration data
Caspase-3 cleavage = experiment: induction of apoptosis via Caspase 3 cleavage; assay type: cell-based; conditions: HT29 and c-Src527F/NIH-3T3 cells
Method: (§1) HT29 (colon cancer) and c-Src527F/NIH-3T3 (Src transformed) cell lines were treated with KX2-391 or with AstraZeneca's ATP competitive Src inhibitor AZ28. AZ28 serves as a positive comparator to show what a validated Src inhibitor should do in these assays. After treatment with compound, cells were lysed, subjected to PAGE and probed with a battery of antibodies. […] In addition, off-target protein phosphorylation was also investigated. Further, induction of apoptosis was evaluated via Caspase 3 cleavage. Multiple doses of each compound were tested because the trends in response to increasing drug concentration are the most reliable indicator of activity.
(§2) The same range of multiples of the GI50 for AZ28 in these two cell lines was run as a comparison.
Cleavage of Caspase-3 is a good measure of induction of apoptosis.

IR(h) = IR(h) (Homo sapiens, UniProt P06213); experiment: isolated kinase activity, IR; assay type: biochemical; conditions: compound @ 10 μM
Sequence of IR(h) (P06213 28-1382): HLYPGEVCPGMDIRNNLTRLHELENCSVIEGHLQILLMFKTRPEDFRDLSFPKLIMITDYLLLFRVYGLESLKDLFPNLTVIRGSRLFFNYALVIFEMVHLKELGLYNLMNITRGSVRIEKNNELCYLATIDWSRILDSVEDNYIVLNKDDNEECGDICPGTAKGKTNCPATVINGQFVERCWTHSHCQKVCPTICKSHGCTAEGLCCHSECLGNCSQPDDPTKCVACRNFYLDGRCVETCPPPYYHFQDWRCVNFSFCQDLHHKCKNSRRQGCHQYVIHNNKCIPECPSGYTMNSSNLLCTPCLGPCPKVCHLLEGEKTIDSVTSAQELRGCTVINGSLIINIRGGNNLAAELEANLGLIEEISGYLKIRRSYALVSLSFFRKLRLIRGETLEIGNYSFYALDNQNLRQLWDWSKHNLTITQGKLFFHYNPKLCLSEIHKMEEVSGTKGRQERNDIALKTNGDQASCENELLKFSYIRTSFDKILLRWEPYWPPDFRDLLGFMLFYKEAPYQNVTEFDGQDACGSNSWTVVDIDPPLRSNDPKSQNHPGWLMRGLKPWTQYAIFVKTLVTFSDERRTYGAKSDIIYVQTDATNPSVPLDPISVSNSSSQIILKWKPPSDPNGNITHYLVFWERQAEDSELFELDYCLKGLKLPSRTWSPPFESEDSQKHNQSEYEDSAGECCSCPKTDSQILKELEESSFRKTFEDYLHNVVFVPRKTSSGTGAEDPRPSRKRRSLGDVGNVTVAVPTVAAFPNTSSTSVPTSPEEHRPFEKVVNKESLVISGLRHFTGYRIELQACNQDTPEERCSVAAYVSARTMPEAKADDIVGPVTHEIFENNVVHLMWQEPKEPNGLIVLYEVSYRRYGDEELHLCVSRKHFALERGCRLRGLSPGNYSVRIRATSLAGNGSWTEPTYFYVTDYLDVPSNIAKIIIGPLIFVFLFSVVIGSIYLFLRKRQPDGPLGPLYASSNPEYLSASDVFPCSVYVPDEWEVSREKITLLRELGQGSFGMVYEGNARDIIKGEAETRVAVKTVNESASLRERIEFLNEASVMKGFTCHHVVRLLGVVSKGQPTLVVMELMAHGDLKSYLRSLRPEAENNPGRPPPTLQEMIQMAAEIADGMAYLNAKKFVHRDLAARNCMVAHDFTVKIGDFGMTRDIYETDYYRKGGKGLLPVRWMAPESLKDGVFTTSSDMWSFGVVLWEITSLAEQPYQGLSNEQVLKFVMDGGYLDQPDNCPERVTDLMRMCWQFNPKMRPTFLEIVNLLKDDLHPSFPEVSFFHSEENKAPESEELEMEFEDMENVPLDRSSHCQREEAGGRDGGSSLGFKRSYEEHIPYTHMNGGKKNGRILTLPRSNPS
Excerpt: (§3) Table 8 illustrates percent activity of isolated kinases in the presence of the AstraZeneca ATP-competitive inhibitor (KX2-328, AZ-28) or KX2-391 relative to control (untreated) isolated kinases.

Abl(h) = Abl(h) (Homo sapiens, UniProt P00519); experiment: isolated kinase activity, Abl; assay type: biochemical; conditions: compound @ 10 μM
Sequence of Abl(h) (P00519 whole entry): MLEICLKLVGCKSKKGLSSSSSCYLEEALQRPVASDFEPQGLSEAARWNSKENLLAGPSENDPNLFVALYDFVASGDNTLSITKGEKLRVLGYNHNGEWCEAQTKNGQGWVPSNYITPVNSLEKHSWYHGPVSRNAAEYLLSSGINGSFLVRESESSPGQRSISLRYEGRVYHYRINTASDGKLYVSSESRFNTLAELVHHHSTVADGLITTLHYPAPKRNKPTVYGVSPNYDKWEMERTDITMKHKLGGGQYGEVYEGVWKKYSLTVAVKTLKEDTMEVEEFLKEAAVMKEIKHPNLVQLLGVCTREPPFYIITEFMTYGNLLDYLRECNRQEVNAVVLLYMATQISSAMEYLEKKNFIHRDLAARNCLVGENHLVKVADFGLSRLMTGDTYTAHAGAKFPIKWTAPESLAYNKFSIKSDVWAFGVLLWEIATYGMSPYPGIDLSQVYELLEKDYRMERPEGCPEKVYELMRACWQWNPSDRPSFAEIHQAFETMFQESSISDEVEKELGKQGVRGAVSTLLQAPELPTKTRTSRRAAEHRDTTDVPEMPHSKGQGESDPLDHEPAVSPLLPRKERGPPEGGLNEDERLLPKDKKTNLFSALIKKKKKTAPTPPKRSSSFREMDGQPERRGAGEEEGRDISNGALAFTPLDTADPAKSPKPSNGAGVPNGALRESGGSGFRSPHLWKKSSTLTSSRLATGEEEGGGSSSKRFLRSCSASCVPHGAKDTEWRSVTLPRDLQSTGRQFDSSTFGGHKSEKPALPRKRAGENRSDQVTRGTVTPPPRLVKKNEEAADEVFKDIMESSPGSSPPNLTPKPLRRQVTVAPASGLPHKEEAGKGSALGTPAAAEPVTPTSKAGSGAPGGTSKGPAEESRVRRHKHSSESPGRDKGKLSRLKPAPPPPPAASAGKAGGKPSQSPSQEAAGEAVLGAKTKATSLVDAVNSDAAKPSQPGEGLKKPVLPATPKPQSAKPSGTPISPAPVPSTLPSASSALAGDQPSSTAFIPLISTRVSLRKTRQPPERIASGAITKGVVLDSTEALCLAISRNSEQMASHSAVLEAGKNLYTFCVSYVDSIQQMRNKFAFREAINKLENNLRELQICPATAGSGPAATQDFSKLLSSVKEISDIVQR
Excerpt: as §3

MAPK2(h) = MAPK2(h) (Homo sapiens, UniProt P28482); experiment: isolated kinase activity, MAPK2; assay type: biochemical; conditions: compound @ 10 μM
Sequence of MAPK2(h) (P28482 whole entry): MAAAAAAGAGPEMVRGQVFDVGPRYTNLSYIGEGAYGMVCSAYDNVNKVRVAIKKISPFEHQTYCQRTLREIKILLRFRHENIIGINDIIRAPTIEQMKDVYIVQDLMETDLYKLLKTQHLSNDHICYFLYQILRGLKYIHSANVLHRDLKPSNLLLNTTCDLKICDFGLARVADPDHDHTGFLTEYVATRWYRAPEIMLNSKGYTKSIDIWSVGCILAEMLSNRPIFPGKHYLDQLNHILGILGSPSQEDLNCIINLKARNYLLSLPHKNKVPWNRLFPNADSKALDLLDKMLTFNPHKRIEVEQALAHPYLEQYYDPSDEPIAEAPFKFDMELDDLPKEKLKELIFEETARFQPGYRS
Excerpt: as §3

Lyn(h) = Lyn(h) (Homo sapiens, UniProt P07948); experiment: isolated kinase activity, Lyn; assay type: biochemical; conditions: compound @ 10 μM
Sequence of Lyn(h) (P07948 whole entry): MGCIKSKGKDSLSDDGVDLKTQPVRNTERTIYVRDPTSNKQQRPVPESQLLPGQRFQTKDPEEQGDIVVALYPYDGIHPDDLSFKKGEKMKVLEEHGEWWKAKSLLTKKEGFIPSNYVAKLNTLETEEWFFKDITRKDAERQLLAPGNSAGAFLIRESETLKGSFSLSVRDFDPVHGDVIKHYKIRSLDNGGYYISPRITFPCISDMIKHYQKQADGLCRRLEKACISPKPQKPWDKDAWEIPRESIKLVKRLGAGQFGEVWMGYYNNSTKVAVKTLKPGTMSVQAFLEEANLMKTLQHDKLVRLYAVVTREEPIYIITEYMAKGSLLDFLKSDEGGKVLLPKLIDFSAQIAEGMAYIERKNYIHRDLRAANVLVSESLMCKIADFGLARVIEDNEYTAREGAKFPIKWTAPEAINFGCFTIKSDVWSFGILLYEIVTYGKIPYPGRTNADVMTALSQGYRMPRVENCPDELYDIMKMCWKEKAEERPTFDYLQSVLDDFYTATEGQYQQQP
Excerpt: as §3

Bcr/Abl &245 = experiment: whole cell phosphorylation, Bcr/Abl; assay type: cell-based; conditions: whole cells
ACHN = experiment: renal tumor cell growth inhibition, ACHN; assay type: cell-based, Human; conditions: renal cell adenocarcinoma
Method: (§4) These GI50s were determined using standard tumor growth inhibition assays, similar to those described in detail in this Example 7.

Caki-2 = experiment: renal tumor cell growth inhibition, Caki-2; assay type: cell-based, Human; conditions: Caki-2, clear cell carcinoma
Method: as §4

Ba/F3 (IL-3 induced) = experiment: MTT growth inhibition, Ba/F3 + IL-3; assay type: cell-based; conditions: 96 hrs, read-out: GI50
SW1088 = experiment: brain tumor cell growth inhibition, SW1088; assay type: cell-based, Human; conditions: SW1088, astrocytoma; read-out: IC50 (title: GI50)
COLO-320DM = experiment: MTT growth inhibition, Dasatinib-resistant COLO-320DM; assay type: cell-based, human; conditions: 8.0×10^3 cells/well, […] FBS, 78 Hr
Method: (§5) Cell proliferation/growth inhibition was assessed using MTT colorimetric assay.
(§6) On Day 3, 10 μL MTT (5 mg/mL) was added to each well. Cells were then incubated in the presence of MTT for 4 hours at 37° C., appropriate CO2 conditions. After this incubation period, 90 μL 10% SDS(+HCl) was added to each well to lyse cells and solubilize formazan. Cells were then incubated overnight at 37° C., appropriate CO2 conditions.
(§7) The OD570 was measured using microplate reader. Growth inhibition curves and EC50/IC50 was determined using GraphPad Prism 4 statistical software.

ZAP70 Y319 = experiment: whole cell phosphorylation, ZAP70; assay type: cell-based; conditions: whole cells
[1] = test system: Ba/F3 + BCR-Abl T315I mutant; experiment: MTT growth inhibition, Ba/F3 + BCR-Abl T315I; assay type: cell-based; conditions: 96 hrs
Excerpt: Cultures of Ba/F3 cells were also transfected to express wild-type (WT) Bcr-Abl, E255K mutation of Bcr-Abl, or T315I mutation of Bcr-Abl and cultured in 96-well plates in complete media without IL-3. The Ba/F3 cell line is rendered Gleevec resistant when the mutation in the Bcr/Abl tyrosine kinase […] is present. […] All assays are in triplicate.

Lck Y405 = experiment: whole cell phosphorylation, Lck; assay type: cell-based; conditions: whole cells
SK-N-MC = experiment: brain tumor cell growth inhibition, SK-N-MC; assay type: cell-based, Human; conditions: neuroepithelioma, read-out: IC50 (title: GI50)
[2] = test system: EGFR tyrosine kinase autophosphorylation; experiment: EGFR tyrosine kinase autophosphorylation in cells; assay type: cell-based; conditions: tumor cells, FIG. 9, EGF Y845
Method: as §1, §2
This site is not a direct Src phosphorylation site.

HCT116 = experiment: MTT growth inhibition, Dasatinib-resistant HCT116; assay type: cell-based, human; conditions: HCT116, 8.0×10^3 cells/well, […] FBS, 78 Hr
Method: as §5, §6, §7

786-O = experiment: renal tumor cell growth inhibition, 786-O; assay type: cell-based, Human; conditions: renal cell adenocarcinoma
Method: as §4

Lyn Y416 = experiment: whole cell phosphorylation, Lyn; assay type: cell-based; conditions: whole cells

Sequence of isolated FAK (Q05397 whole entry): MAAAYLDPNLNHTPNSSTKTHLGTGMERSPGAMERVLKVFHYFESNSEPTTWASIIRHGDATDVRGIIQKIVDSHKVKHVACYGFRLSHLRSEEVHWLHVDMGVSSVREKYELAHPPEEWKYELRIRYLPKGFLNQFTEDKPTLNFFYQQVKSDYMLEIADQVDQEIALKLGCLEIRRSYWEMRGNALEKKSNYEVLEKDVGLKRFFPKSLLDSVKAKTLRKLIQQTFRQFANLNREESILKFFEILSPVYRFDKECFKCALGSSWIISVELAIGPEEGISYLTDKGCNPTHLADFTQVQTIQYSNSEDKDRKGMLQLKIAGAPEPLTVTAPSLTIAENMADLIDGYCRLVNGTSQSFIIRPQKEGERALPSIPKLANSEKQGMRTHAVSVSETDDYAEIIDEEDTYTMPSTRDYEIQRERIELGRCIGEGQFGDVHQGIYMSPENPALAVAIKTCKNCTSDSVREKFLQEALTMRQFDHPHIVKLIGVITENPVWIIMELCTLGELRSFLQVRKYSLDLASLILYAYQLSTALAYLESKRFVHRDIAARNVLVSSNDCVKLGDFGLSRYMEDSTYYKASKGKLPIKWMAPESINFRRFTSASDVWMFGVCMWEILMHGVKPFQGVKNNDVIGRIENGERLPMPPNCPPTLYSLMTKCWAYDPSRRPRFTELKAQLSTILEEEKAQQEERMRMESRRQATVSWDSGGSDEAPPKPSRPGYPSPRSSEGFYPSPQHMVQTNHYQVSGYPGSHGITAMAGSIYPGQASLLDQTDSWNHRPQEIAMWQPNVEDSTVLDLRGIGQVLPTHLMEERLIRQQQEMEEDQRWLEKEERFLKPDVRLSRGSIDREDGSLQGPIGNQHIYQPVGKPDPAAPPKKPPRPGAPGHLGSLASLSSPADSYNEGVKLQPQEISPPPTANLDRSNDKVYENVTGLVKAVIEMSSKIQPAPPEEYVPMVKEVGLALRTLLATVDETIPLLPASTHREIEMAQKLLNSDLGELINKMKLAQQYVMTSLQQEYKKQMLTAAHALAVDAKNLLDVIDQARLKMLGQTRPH

O=C(Cc1ccc(-c2ccc(OCCN3CCOCC3)cc2)cn1)NCc1ccccc1 [KX2-391]
pIC50 (isolated FAK): < 4.32
induction of apoptosis (Caspase-3 cleavage) (Caspase-3 cleavage): very effective in inducing apoptosis
percent activity of isolated kinase relative to control (IR(h)): 112%
percent activity of isolated kinase relative to control (Abl(h)): 120%
percent activity of isolated kinase relative to control (MAPK2(h)): 112%
percent activity of isolated kinase relative to control (Lyn(h)): 113%

O=C(Cc1ccc(-c2ccc(OCCN3CCOCC3)cc2)cn1)NCc1ccccc1 [KXO1]
phosphorylation of Bcr/Abl &245 (Bcr/Abl &245): inhibited less potently
GI50 (ACHN): 33.2 nM
GI50 (Caki-2): 39.2 nM
GI50 (Ba/F3 (IL-3 induced)): 3.5 nM
pIC50 (SW1088): 7.12
pIC50 (COLO-320DM): 7.52
IC80 (COLO-320DM): 80 nM
IC90 (COLO-320DM): 144 nM
phosphorylation of ZAP70 Y319 (ZAP70 Y319): not inhibited
GI50 [1]: 35 nM
phosphorylation of Lck Y405 (Lck Y405): not inhibited
pIC50 (SK-N-MC): 8.24
EGFR tyrosine kinase autophosphorylation [2]: not inhibited
EGFR tyrosine kinase autophosphorylation ([2]; listed as KX-391): less active
pIC50 (HCT116): 7.51
IC80 (HCT116): 106 nM
IC90 (HCT116): 195 nM
GI50 (786-O): 378 nM
phosphorylation of Lyn Y416 (Lyn Y416): inhibited less potently
